USRE35230E (priority 1994, dated 1996)

tested on: (R)-oxynitrilase; experiment: Relative rates of dehydrocyanation of cyanohydrins by soluble (R)-oxynitrilase (initial rate studies); type: biochemical; settings: 0.21 mM cyanohydrin, dehydrocyanation relative to benzaldehyde cyanohydrin
Method: The following standardized assay was utilized to measure the activity of oxynitrilase set forth in the Examples which follow. A solution of enzyme was prepared in 0.1M (pH 5.5) citrate buffer. A 3-ml sample of enzyme solution was combined with 30 microliters of 0.21M benzaldehyde cyanohydrin and the rate of increase in absorbance at 250 nm recorded. Then, the same procedure was followed with a 3-ml sample of 0.1M (pH 5.5) citrate buffer to obtain the background, non-enzymatic, reaction. The activity in units/ml was calculated by subtracting the slope of the non-enzymatic reaction from the slope of the enzymatic reaction and converting the absorbance change with time to concentration change with time using a molar extinction coefficient of 13,200 M^-1 cm^-1.
Relative rates of dehydrocyanation of different cyanohydrins subjected to the action of the soluble catalyst (R)-oxynitrilase were determined from initial rate studies. A solution of (R)-oxynitrilase was combined with a 0.21 mM solution of cyanohydrin and the rate of increase of absorbance at the wavelength corresponding to the absorption maxima was monitored as described above in connection with the measurement of catalyst activity. The measured activity was calculated using the appropriate extinction coefficient for the corresponding aldehyde.

Structure (SMILES)	Relative Rate
CC=CC(O)C#N (stereo not drawn) [Crotonaldehyde cyanohydrin]	0.90
COc1ccc(C(O)C#N)cc1 (stereo not drawn) [p-Anisaldehyde cyanohydrin]	0.17
N#CC(O)c1ccccc1 (stereo not drawn) [Benzaldehyde cyanohydrin, reference compound]	1.0
CCc1ccc(C(O)C#N)cc1 (stereo not drawn) [p-Ethylbenzaldehyde cyanohydrin]	0.13
N#CC(O)c1ccc2c(c1)OCO2 (stereo not drawn) [Piperonal cyanohydrin]	2.1
Cc1ccc(C(O)C#N)cc1 (stereo not drawn) [P-Tolualdehyde cyanohydrin]	0.45
COc1cccc(C(O)C#N)c1 (stereo not drawn) [m-Anisaldehyde cyanohydrin]	0.19
N#CC(O)c1ccco1 (stereo not drawn) [Furfural cyanohydrin]	2.5
N#CC(O)C=Cc1ccccc1 (stereo not drawn) [Cinnamaldehyde cyanohydrin]	0.05
Cc1ccc(C(O)C#N)o1 (stereo not drawn) [5-Methylfurfural cyanohydrin]	2.8

tested on: not listed separately; experiment: Permeability in supported-gas membrane system of FIG. 1; settings: both dehydrocyanation products approximately equal

Structure (SMILES)	average permeability relative to the permeability of benzaldehyde cyanohydrin
O=Cc1ccccc1 [benzaldehyde]	roughly 700 times

tested on: not given; experiment: not given; settings: benzaldehyde cyanohydrin to benzaldehyde and hydrogen cyanide; cited from earlier work

Structure (SMILES)	dehydrocyanation equilibrium constant [mM]
N#CC(O)c1ccccc1 (stereo not drawn) [Benzaldehyde cyanohydrin, reference compound]	5
